Data from patent publication US9688702B2, “Alpha-amino boronic acid derivatives, selective immunoproteasome inhibitors” (Ares Trading S.A, priority 2011, dated 2017).
pIC50: −log10 of the molar value.

Legend:
[1] = molecular target: LMP7 (purified human immuno proteasome) (Homo sapiens, UniProt P28062); assay: Determination of LMP7 activity (fluorescence intensity assay, Suc-LLVY-AMC); format: biochemical; conditions: for pIC50: 40 μM Suc-LLVY-AMC, 37° C.
How it was run: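 Purified human immunoproteasome (0.5 nM or 0.25 nM) preincubated 30 min at 37 °C with compounds (10 μM to 38 pM) in 50 mM Tris pH 7.4, 0.03% SDS. Suc-LLVY-AMC added at 40 μM; after 90 min at 37 °C, fluorescence read at ex 350/em 450 nm.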

[2] = molecular target: Beta5 (purified human constitutive proteasome) (Homo sapiens, UniProt P28074); assay: Determination of Beta5 activity (fluorescence intensity assay, Suc-LLVY-AMC); format: biochemical; conditions: purified human constitutive proteasome 1.0 nM, 40 μM Suc-LLVY-AMC, 37° C.
How it was run: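 Purified human constitutive proteasome (1.0 nM) was preincubated 30 min at 37 °C with compounds (10 μM to 38 pM) in 50 mM Tris pH 7.4, 0.03% SDS. Suc-LLVY-AMC (40 μM) was then added and fluorescence (ex 350/em 450 nm) read after 90 min at 37 °C.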

[3] = purified human immuno proteasome 0.5 nM

Row | SMILES | Selectivity LMP7 vs Beta5 [1] | pIC50 [1, 3] | pIC50 [2] | pIC50 ([1]; purified human immuno proteasome 0.25 nM (examples 79, 80, 83, 84, 85, 87, 88, 89, 90, 91, 93, 94, 96, 97, 101 and 110))
1 | O=C(CCn1cnc2ccccc21)N[C@@H](Cc1csc2ccccc12)B(O)O [Example 106, (R)-(1-(3-(1H-benzo[d]imidazol-1-yl)propanamido)-2-(benzo[b]thiophen-3-yl)ethyl)boronic acid] | ++ (++: 10 < Selectivity < 30) | > 7.30 | > 7.30 | –
2 | COc1ccc2occ(C[C@H](NC(C)=O)B(O)O)c2c1 [Example 108, (R)-(1-acetamido-2-(5-methoxybenzofuran-3-yl)ethyl)boronic acid] | + (+: Selectivity < 10) | < 5.30 | < 5.30 | –
3 | COc1ccc2occ(C[C@H](NC(=O)CCn3c(=O)sc4ccccc43)B(O)O)c2c1 [Example 109, (R)-(2-(5-methoxybenzofuran-3-yl)-1-(3-(2-oxobenzo[d]thiazol-3(2H)-yl)propanamido)ethyl)boronic acid] | + (+: Selectivity < 10) | > 7.30 | 6.30 to 7.30 | –

Results, then the compound that gave them:

Row | Selectivity LMP7 vs Beta5 [1] | pIC50 [1, 3] | pIC50 [2] | pIC50 ([1]; purified human immuno proteasome 0.25 nM (examples 79, 80, 83, 84, 85, 87, 88, 89, 90, 91, 93, 94, 96, 97, 101 and 110)) | SMILES
4 | ++ (++: 10 < Selectivity < 30) | > 7.30 | > 7.30 | – | O=C(CCn1cc(-c2ccccc2)nn1)N[C@@H](Cc1ccc2c(c1)OCO2)B(O)O [Example 107, (R)-(2-(benzo[d][1,3]dioxol-5-yl)-1-(3-(4-phenyl-1H-1,2,3-triazol-1-yl)propanamido)ethyl)boronic acid]
5 | ++ (++: 10 < Selectivity < 30) | – | > 7.30 | > 7.30 | CCc1cccc(C[C@H](NC(=O)C(Cn2cc(-c3ccccc3)nn2)Cn2ccsc2=O)B(O)O)c1 (stereo partly drawn) [Example 110, ((1R)-2-(3-ethylphenyl)-1-(3-(2-oxothiazol-3(2H)-yl)-2-((4-phenyl-1H-1,2,3-triazol-1-yl)methyl)propanamido)ethyl)boronic acid]
